Here are results for one molecule from patent US20210290597A1, “METHOD OF TREATING A CONDITION ASSOCIATED WITH NEURODEGENERATION USING INHIBITORS OF OAT3” (Neuropore Therapies, Inc., priority 2018, published 2021).

In assay [1] the target is T1, human transporter OCT2 (Homo sapiens, UniProt O15244).
T1 construct: expressed in transfected cells; host or cells: MDCK-II
T1 sequence (O15244 1-555): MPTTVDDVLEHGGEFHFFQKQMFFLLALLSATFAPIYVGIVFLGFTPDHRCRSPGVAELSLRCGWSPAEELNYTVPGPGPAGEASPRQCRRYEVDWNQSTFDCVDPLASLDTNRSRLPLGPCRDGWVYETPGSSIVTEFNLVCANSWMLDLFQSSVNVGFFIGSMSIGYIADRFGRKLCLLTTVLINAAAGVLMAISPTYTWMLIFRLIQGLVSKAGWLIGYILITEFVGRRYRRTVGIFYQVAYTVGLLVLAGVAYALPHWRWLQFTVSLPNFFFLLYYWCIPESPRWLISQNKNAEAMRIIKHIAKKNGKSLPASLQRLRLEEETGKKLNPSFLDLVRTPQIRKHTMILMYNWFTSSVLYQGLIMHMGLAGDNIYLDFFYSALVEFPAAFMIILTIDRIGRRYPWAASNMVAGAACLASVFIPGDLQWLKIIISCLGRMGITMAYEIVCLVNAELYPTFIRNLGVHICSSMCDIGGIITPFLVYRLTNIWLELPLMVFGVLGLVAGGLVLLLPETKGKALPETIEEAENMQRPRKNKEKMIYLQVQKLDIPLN
The assay can be described thus: In vitro ion transport assay 1, OCT2. Type of assay: cell-based. The note with it: probe substrate 10 μM [14C]-metformin. As for the experimental part: (§1) Compound 1 was studied in the concentration range of 0.1-100 μM for its potency against transport mediated by various transporter proteins. [table]

Assay [2] has as its target T2, human transporter BCRP (Homo sapiens, UniProt Q9UNQ0).
T2 construct: expressed in transfected cells; host or cells: MDCK-II
T2 sequence (Q9UNQ0 1-655): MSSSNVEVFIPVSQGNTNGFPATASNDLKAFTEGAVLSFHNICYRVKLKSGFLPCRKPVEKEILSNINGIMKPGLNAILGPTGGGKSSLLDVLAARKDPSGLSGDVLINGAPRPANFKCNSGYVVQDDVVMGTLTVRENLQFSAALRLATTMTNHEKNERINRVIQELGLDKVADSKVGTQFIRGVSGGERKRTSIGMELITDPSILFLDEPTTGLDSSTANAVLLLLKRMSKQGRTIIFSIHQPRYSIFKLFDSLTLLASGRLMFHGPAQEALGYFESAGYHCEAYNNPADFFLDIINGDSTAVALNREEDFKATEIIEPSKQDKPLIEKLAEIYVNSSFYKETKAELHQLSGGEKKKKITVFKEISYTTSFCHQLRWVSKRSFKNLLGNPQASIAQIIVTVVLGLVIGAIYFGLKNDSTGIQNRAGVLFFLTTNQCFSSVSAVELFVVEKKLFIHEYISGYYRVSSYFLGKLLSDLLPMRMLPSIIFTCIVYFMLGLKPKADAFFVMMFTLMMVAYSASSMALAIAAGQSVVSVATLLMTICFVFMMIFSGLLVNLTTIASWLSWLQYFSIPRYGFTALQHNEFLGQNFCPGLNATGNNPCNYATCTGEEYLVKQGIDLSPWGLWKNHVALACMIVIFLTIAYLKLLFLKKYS
Description: In vitro ion transport assay 1, BCRP. Type of assay: cell-based. As to conditions: probe substrate 2 μM [3H]-prazosin. As to the method:
as §1

Assay [3] concerns the target T3, human transporter URAT1 (Homo sapiens, UniProt Q96S37).
T3 construct: expressed in transfected cells; host or cells: MDCK-II
T3 sequence (Q96S37 1-553): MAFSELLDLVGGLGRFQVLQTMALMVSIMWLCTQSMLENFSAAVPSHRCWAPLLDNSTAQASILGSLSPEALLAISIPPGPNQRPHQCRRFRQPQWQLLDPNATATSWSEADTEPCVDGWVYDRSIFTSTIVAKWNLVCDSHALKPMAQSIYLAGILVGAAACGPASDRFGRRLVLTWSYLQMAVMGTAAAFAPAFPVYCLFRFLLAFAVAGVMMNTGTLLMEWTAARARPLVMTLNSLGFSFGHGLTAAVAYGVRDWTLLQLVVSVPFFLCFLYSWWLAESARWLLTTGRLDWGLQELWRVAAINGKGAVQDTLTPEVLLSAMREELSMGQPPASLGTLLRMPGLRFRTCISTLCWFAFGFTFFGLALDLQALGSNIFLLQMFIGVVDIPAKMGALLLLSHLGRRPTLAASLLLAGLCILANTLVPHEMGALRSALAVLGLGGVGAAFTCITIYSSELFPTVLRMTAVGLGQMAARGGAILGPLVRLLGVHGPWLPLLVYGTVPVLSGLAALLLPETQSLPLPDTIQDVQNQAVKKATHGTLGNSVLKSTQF
Description: In vitro transport assay 2, URAT1. The format is cell-based. As to conditions: 20 μM [14C]-uric acid. As for the experimental part:
Compound 1 was studied in the concentration range of 0.1-10 μM for its potency against transport mediated by various transporter proteins.

Assay [4] relates to Translocator Protein (18 kDa) (TSPO). The assay can be described thus: TSPO immunofluorescence, L41 APP transgenic mice. The format is in vivo. As to conditions: 5 mg/kg daily i.p. As to the method:
Neuroinflammation is associated with increased expression of the 18-kDa translocator protein (TSPO), which is present on the mitochondria of activated microglia, astroglia and macrophages (Crawshaw and Robertson 2017). The effects of Compound 1 on TSPO expression were assessed in both L41 APP transgenic and non-transgenic mice in a 1 month administration study. L41 APP transgenic mice (36 total mice, n=8-11 mice per treatment group) were injected (i.p.) daily with 5 mg/kg of Compound 1 or a vehicle control (5% DMSO+20% Cremphor EL+0.9% normal saline) for […]. Non-transgenic mice (18 total mice, n=8-11 mice per treatment group) were used as a control and were injected daily (i.p.) with 10 mg/kg of Compound 1 (data not shown) or a vehicle control (5% DMSO+20% Cremphor EL+0.9% normal saline) for 1 month. After 30 days, the mice were sacrificed, and immunofluoresence (IF) detection of TSPO were assessed in the harvested brain tissues.
The harvested brain tissues were drop fixed using 4% PFA and sectioned on a vibratome, and representative sections corresponding to the neuropil of cortex were assessed for TSPO with standard immunofluorescence (IF) staining.

Molecules are shown by their SMILES. pIC50: −log10 of the molar value.

For orientation: pIC50 means the negative decadic logarithm of the IC50, by convention in mol/L.

Take `O=S(=O)(c1ccc(-n2cn[nH]c2=S)cc1)c1ccc(Cl)c(C(F)(F)F)c1` [Compound 1, 4-(4-((4-chloro-3-(trifluoromethyl)phenyl)sulfonyl)phenyl)-2,4-dihydro-3H-1,2,4-triazole-3-thione]: the pIC50 in assay [1] is less than 4.00; in assay [2], 4.29; in assay [3] it was less than 5.00. In assay [4], the “cortical TSPO level vs vehicle-treated Line 41 mice” value is “reduces the TSPO level in a statistically significant manner”.
